The values that follow are results of earlier work, collected in US11497789B2, “Formulations of vancomycin” (SciDose Pharma LLC, priority 2016, dated 2022).

The structures appear in SMILES notation.

The conditions of this series: after reconstitution of the lyophilized product.

In the case of `CN[C@H](CC(C)C)C(=O)N[C@H]1C(=O)N[C@@H](CC(N)=O)C(=O)N[C@H]2C(=O)N[C@H]3C(=O)N[C@H](C(=O)N[C@H](C(=O)O)c4cc(O)cc(O)c4-c4cc3ccc4O)[C@H](O)c3ccc(c(Cl)c3)Oc3cc2cc(c3O[C@@H]2O[C@H](CO)[C@@H](O)[C@H](O)[C@H]2O[C@H]2C[C@](C)(N)[C@H](O)[C@H](C)O2)Oc2ccc(cc2Cl)[C@H]1O` [Vancomycin], the “time stable in water after reconstitution” value is “approximately 24 hours”.
